According to US5667809A, “Continuous fluorochemical microdispersions for the delivery of lipophilic pharmaceutical agents” (priority 1995, dated 1997):
Read-outs that look alike come from different tables or passages of the source.

Legend:
[1] = cited from earlier work
[2] = intravenous, cited from earlier work
[3] = test system: E. coli; assay: Antibacterial activity, E. coli titer in wells with human lung epithelial cells; type: cell-based; conditions: saline
Description: The experimental procedure is followed:
a). Prepare a monolayer of normal human lung epithelial cells.
b). Add 60 μL of E. coli culture into the well with lung epithelial cells on the 96-well plate.
c). […] Incubate at 37° C. overnight.
d). Aspirate the cultured mixture and diluted with LB media (1:2).
e). Take 20 μL of diluted mixture and plate on an LB plate for an initial titration of E. coli. The E. coli plates were incubated at 37° C. overnight.
f). Various dilutions were made according to the initial titer of each mixture so as to determine the accurate titer in each well. A duplicated set of tests was conducted for each treatment.
g). The titer of E. coli was calculated by multiplying the number of colonies grown on each plate by a dilution factor for each well tested.

CC(C)=CCN1CCC2(C)c3cc(O)ccc3CC1C2C (stereo not drawn) [pentazocin]
Octanol/water partition coefficient Po/w ([1]; in octanol/pH 7.4 isotonic phosphate buffer at 37° C. (footnote a on the Log value)): 150

c1ccc2cc3ccccc3cc2c1 [^14 C-anthracene, anthracene]
Log Po/w ([1]; octanol/water): 4.5

CCCCCC(=O)OCCOCn1cnc2c(=O)[nH]c(N)nc21 [hexanoyl acyclovir]
Log Po/w ([1]; pH 7.4): 0.93
Octanol/water partition coefficient Po/w ([1]; pH 7.4): 8.58

CC(CN1c2ccccc2Sc2ccccc21)N(C)C (stereo not drawn) [promethazine]
Log Po/w ([1]; in octanol/pH 7.4 isotonic phosphate buffer at 37° C.): 3.10

Clc1cccc(Cl)c1N=C1NCCN1 [^3 H-clonidine, clonidine]
Log Po/w ([1]; octanol/water): 1.4

CCCCC(CC)COC(=O)c1ccc(N(C)C)cc1 (stereo not drawn) [^14 C-padimate-o, padimate-o]
Log Po/w ([1]; octanol/water): 6.6

CCCCC(=O)OCCOCn1cnc2c(=O)[nH]c(N)nc21 [valeryl acyclovir]
Log Po/w ([1]; pH 7.4): 0.30
Octanol/water partition coefficient Po/w ([1]; pH 7.4): 2.01

CC(=O)O[C@H]1C(=O)[C@@]2(C)[C@H]([C@H](OC(=O)c3ccccc3)[C@]3(O)C[C@H](OC(=O)[C@H](O)[C@@H](NC(=O)c4ccccc4)c4ccccc4)C(C)=C1C3(C)C)[C@]1(OC(C)=O)CO[C@@H]1C[C@@H]2O [paclitaxel]
systemic toxicities [2]: cardiac toxicity and neurotoxicity
systemic toxicities ([2]; listed as Taxol): high systemic toxicities

CCCCNc1ccc(C(=O)OCCN(C)C)cc1 [tetracaine]
Log Po/w ([1]; octanol/water): 1.90

O=C(O)c1cn(C2CC2)c2cc(N3CCNCC3)c(F)cc2c1=O [Ciprofloxacin]
E. coli titer ([3]; 0.05 mg/mL): 0 colonies/ml
E. coli titer ([3]; 0.1 mg/mL): 0 colonies/ml
E. coli titer ([3]; 0.6 mg/mL): 0 colonies/ml
